Results: US9693556B2, “Herbicidal pyridazinone derivatives” (SYNGENTA LIMITED, priority 2011, dated 2017)

Experiments:
Assay type in all cases: in vivo
Setaria faberi (SETFA) [1] = assay: Post-emergence herbicidal glasshouse test on Setaria faberi; settings: post-emergence, 1000 g/h, evaluated after 13 days
Summary of the method: (§1)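 Steps: sow seeds in standard soil; cultivate 1 d (pre-) or 8 d (post-emergence) at 24/16 °C, 14 h light, 65% humidity; spray 1000 g/h in acetone/water plus Tween 20; grow on, watering twice daily; score percentage damage after 13 d.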

[2] = tested on: Amaranthus retoflexus (AMARE); assay: Post-emergence herbicidal glasshouse test on Amaranthus retoflexus; settings: post-emergence, 1000 g/h, evaluated after 13 days
Summary of the method: as §1

[3] = tested on: Echinochloa crus-galli (ECHCG); assay: Post-emergence herbicidal glasshouse test on Echinochloa crus-galli; settings: post-emergence, 1000 g/h, evaluated after 13 days
Summary of the method: as §1

[4] = tested on: Echinochloa crus-galli (ECHCG); assay: Pre-emergence herbicidal glasshouse test on Echinochloa crus-galli; settings: pre-emergence, 1000 g/h, evaluated after 13 days
Summary of the method: as §1

Solanum nigrum (SOLNI) [5] = assay: Post-emergence herbicidal glasshouse test on Solanum nigrum; settings: post-emergence, 1000 g/h, evaluated after 13 days
Summary of the method: as §1

Solanum nigrum (SOLNI) [6] = assay: Pre-emergence herbicidal glasshouse test on Solanum nigrum; settings: pre-emergence, 1000 g/h, evaluated after 13 days
Summary of the method: as §1

Setaria faberi (SETFA) [7] = assay: Pre-emergence herbicidal glasshouse test on Setaria faberi; settings: pre-emergence, 1000 g/h, evaluated after 13 days
Summary of the method: as §1

[8] = tested on: Amaranthus retoflexus (AMARE); assay: Pre-emergence herbicidal glasshouse test on Amaranthus retoflexus; settings: pre-emergence, 1000 g/h, evaluated after 13 days
Summary of the method: as §1

[9] = tested on: Alopecurus myosuroides (ALOMY); assay: Post-emergence herbicidal glasshouse test on Alopecurus myosuroides; settings: post-emergence, 1000 g/h, evaluated after 13 days
Summary of the method: as §1

[10] = tested on: Ipomoea hederacea (IPOHE); assay: Post-emergence herbicidal glasshouse test on Ipomoea hederacea; settings: post-emergence, 1000 g/h, evaluated after 13 days
Summary of the method: as §1

[11] = tested on: Ipomoea hederacea (IPOHE); assay: Pre-emergence herbicidal glasshouse test on Ipomoea hederacea; settings: pre-emergence, 1000 g/h, evaluated after 13 days
Summary of the method: as §1

[12] = tested on: Alopecurus myosuroides (ALOMY); assay: Pre-emergence herbicidal glasshouse test on Alopecurus myosuroides; settings: pre-emergence, 1000 g/h, evaluated after 13 days
Summary of the method: as §1

| SMILES | POST Application SETFA herbicidal damage (five point scale) (Setaria faberi (SETFA) [1]) | POST Application AMARE herbicidal damage (five point scale) [2] | POST Application ECHCG herbicidal damage (five point scale) [3] | PRE Application ECHCG herbicidal damage (five point scale) [4] | POST Application SOLNI herbicidal damage (five point scale) (Solanum nigrum (SOLNI) [5]) | PRE Application SOLNI herbicidal damage (five point scale) (Solanum nigrum (SOLNI) [6]) | PRE Application SETFA herbicidal damage (five point scale) (Setaria faberi (SETFA) [7]) | PRE Application AMARE herbicidal damage (five point scale) [8] | POST Application ALOMY herbicidal damage (five point scale) [9] | POST Application IPOHE herbicidal damage (five point scale) [10] | PRE Application IPOHE herbicidal damage (five point scale) [11] | PRE Application ALOMY herbicidal damage (five point scale) [12] | further results |
| --- | --- | --- | --- | --- | --- | --- | --- | --- | --- | --- | --- | --- | --- |
| COCn1ncc(-c2ccc(C(F)(F)F)cc2[S+](C)[O-])c(O)c1=O (stereo not drawn) [Compound 1.146] | 5 (5=80-100% damage) | 5 (5=80-100% damage) | 5 (5=80-100% damage) | 5 (5=80-100% damage) | 5 (5=80-100% damage) | 5 (5=80-100% damage) | 2 (2=20-39% damage) | 5 (5=80-100% damage) | 5 (5=80-100% damage) | 5 (5=80-100% damage) | 4 (4=60-79% damage) | 4 (4=60-79% damage) | – |
| COc1cc(-c2c(C(F)(F)F)ccn(-c3cnn(C)c(=O)c3O)c2=O)cc(OC)c1OC [Compound 7.021] | 5 (5=80-100% damage) | 5 (5=80-100% damage) | 5 (5=80-100% damage) | 5 (5=80-100% damage) | 5 (5=80-100% damage) | 5 (5=80-100% damage) | 5 (5=80-100% damage) | 5 (5=80-100% damage) | 5 (5=80-100% damage) | 4 (4=60-79% damage) | 4 (4=60-79% damage) | 5 (5=80-100% damage) | – |
| CC(=O)Oc1c(-c2ccc(C(F)(F)F)cc2S(C)(=O)=O)cnn(C)c1=O [Compound 3.001, [2-methyl-5-[2-methylsulfonyl-4-(trifluoromethyl)phenyl]-3-oxo-pyridazin-4-yl]acetate] | 5 (5=80-100% damage) | 5 (5=80-100% damage) | 5 (5=80-100% damage) | 5 (5=80-100% damage) | 5 (5=80-100% damage) | 5 (5=80-100% damage) | 5 (5=80-100% damage) | 5 (5=80-100% damage) | 5 (5=80-100% damage) | 5 (5=80-100% damage) | 5 (5=80-100% damage) | 5 (5=80-100% damage) | – |
| CC(C)N(C)S(=O)(=O)c1ccc(-c2cnn(C)c(=O)c2O)c(S(C)(=O)=O)c1 [Compound 2.038] | 5 (5=80-100% damage) | 5 (5=80-100% damage) | 5 (5=80-100% damage) | 5 (5=80-100% damage) | 5 (5=80-100% damage) | 5 (5=80-100% damage) | 4 (4=60-79% damage) | 5 (5=80-100% damage) | 4 (4=60-79% damage) | 4 (4=60-79% damage) | 4 (4=60-79% damage) | 5 (5=80-100% damage) | – |
| Cn1ncc(-c2ccc(S(=O)(=O)Cc3ccccc3)cc2S(C)(=O)=O)c(O)c1=O [Compound 2.036] | 5 (5=80-100% damage) | 5 (5=80-100% damage) | 5 (5=80-100% damage) | 5 (5=80-100% damage) | 5 (5=80-100% damage) | 5 (5=80-100% damage) | 5 (5=80-100% damage) | 5 (5=80-100% damage) | 5 (5=80-100% damage) | 5 (5=80-100% damage) | 5 (5=80-100% damage) | 5 (5=80-100% damage) | – |
| Cn1ncc(-c2cccn(-c3cccc(C(F)(F)F)c3)c2=O)c(O)c1=O [Compound 1.152] | – | – | – | – | – | – | – | – | – | – | – | – | herbicidal damage, POST Application SETFA (Setaria faberi (SETFA) [1]; five point scale): 1 (1=0-19% damage); herbicidal damage, POST Application AMARE ([2]; five point scale): 1 (1=0-19% damage); herbicidal damage, POST Application ECHCG ([3]; five point scale): 1 (1=0-19% damage); herbicidal damage, PRE Application ECHCG ([4]; five point scale): 2 (2=20-39% damage); herbicidal damage, POST Application SOLNI (Solanum nigrum (SOLNI) [5]; five point scale): 1 (1=0-19% damage); herbicidal damage, PRE Application SOLNI (Solanum nigrum (SOLNI) [6]; five point scale): 2 (2=20-39% damage); herbicidal damage, PRE Application SETFA (Setaria faberi (SETFA) [7]; five point scale): 5 (5=80-100% damage); herbicidal damage, PRE Application AMARE ([8]; five point scale): 2 (2=20-39% damage); herbicidal damage, POST Application ALOMY ([9]; five point scale): 1 (1=0-19% damage); herbicidal damage, POST Application IPOHE ([10]; five point scale): 2 (2=20-39% damage); herbicidal damage, PRE Application IPOHE ([11]; five point scale): 1 (1=0-19% damage); herbicidal damage, PRE Application ALOMY ([12]; five point scale): 4 (4=60-79% damage) |
| Cc1c(-c2cnn(C(C)(C)C)c(=O)c2O)ccc(S(C)(=O)=O)c1C1=NOCC1 [Compound 1.131] | 4 (4=60-79% damage) | 5 (5=80-100% damage) | 5 (5=80-100% damage) | 1 (1=0-19% damage) | 5 (5=80-100% damage) | 4 (4=60-79% damage) | 1 (1=0-19% damage) | 3 (3=40-59% damage) | 4 (4=60-79% damage) | 5 (5=80-100% damage) | 1 (1=0-19% damage) | 1 (1=0-19% damage) | – |
| Cc1cc(C)c2cc(-c3cnn(C)c(=O)c3O)c(C(F)(F)F)nc2n1 [Compound 5.002] | 2 (2=20-39% damage) | 5 (5=80-100% damage) | 3 (3=40-59% damage) | 2 (2=20-39% damage) | 5 (5=80-100% damage) | 1 (1=0-19% damage) | 1 (1=0-19% damage) | 5 (5=80-100% damage) | 1 (1=0-19% damage) | 5 (5=80-100% damage) | 3 (3=40-59% damage) | 1 (1=0-19% damage) | – |
| Cn1ncc(-c2ccc(C(F)(F)F)nc2C#N)c(O)c1=O [Compound 4.015] | 1 (1=0-19% damage) | 1 (1=0-19% damage) | 1 (1=0-19% damage) | 1 (1=0-19% damage) | 1 (1=0-19% damage) | 1 (1=0-19% damage) | 1 (1=0-19% damage) | 1 (1=0-19% damage) | 1 (1=0-19% damage) | 1 (1=0-19% damage) | 1 (1=0-19% damage) | 1 (1=0-19% damage) | – |
| Cn1ncc(-c2cccc3ccccc23)c(O)c1=O [Compound 1.095] | 1 (1=0-19% damage) | 1 (1=0-19% damage) | 1 (1=0-19% damage) | 1 (1=0-19% damage) | 1 (1=0-19% damage) | 1 (1=0-19% damage) | 1 (1=0-19% damage) | 1 (1=0-19% damage) | 1 (1=0-19% damage) | 1 (1=0-19% damage) | 1 (1=0-19% damage) | 1 (1=0-19% damage) | – |
